In patent US20220354818A1, “METHODS FOR TREATING BRAIN INJURY OR COGNITIVE DYSFUNCTION BY PHARMACOLOGICAL ENHANCMENT OF M-TYPE POTASSIUM ION CURRENTS IN NEURONS” (Advanced Neuroresearch Therapeutics LLC, priority 2019, published 2022):
“Also recorded” adds a separate entry of the source.

How the values were obtained:
[1] = test system: neurons of the dentate gyrus of the hippocampus; experiment: Ex vivo brain-slice calcium imaging (GCaMP6f) with kainic acid stimulation after TBI; assay type: in vivo, mouse; conditions: RL648_81 30 minutes after blunt TBI
Description: In another embodiment of the present invention, ex vivo imaging of intracellular calcium levels in neurons, which are a reporter of activity or hyper-activity of neurons, were assayed in the brain slices using transgenic mice expressing the genetically encoded indicator of calcium levels, GCaMP6f expressed only in neurons.
Turning now to FIG. 8, the chemo-convulsant, kainic acid (KA), was used to stimulate neurons from brain slices of the dentate gyms (DG) of the hippocampus (the part of the brain where most new memories are thought to form) from sham mice, mice subjected to a TBI but not drug or TBI followed by RL-648_81.

[2] = test system: mice subjected to one blunt TBI (CCCI); experiment: Dosage optimization: spontaneous myoclonic seizures after one blunt TBI (CCCI); assay type: in vivo, mouse; conditions: RL648_81 0.03, 0.1 and 0.3 mg/kg i.p. once 30 minutes post-TBI
Description: An additional KCNQ2/3-specific compound, RL648_81 was also administered in the same manner (0.03 mg/kg, 0.1 mg/kg, and 0.3 mg/kg). […] To monitor the occurrence of spontaneous myoclonic seizures after, the mice were video/EEG monitored from the second to the fourth day after the TBI (72 hours total).

[3] = test system: mice subjected to one blunt TBI, pentylenetetrazol (PTZ); experiment: PTZ-induced seizure susceptibility after one blunt TBI (CCCI); assay type: in vivo, mouse; conditions: RL648_81 at 0.1 mg/kg; PTZ 35 mg/kg s.c. fifth day post-TBI
Description: Stimulation with PTZ induced the occurrence of clonic and tonic-clonic seizures in TBI-subjected mice.

cortical neurons = experiment: In vivo two-photon calcium imaging of cortical neurons through a cranial window after TBI; conditions: living mouse brain
Description: Referring now to FIG. 9, another embodiment of the present invention concerns in vivo imaging of intracellular calcium levels in neurons from living brain in vivo, as a reporter of activity/hyperactivity. The genetically-encoded calcium reporter, GCaMP6f, was used in transgenic mice in which the reporter is expressed in critical subsets of brain neurons, allowing in vivo recordings of neurons of living brain, as a reporter of activity/hyperactivity in cortex induced by TBI, the first event in the hypothesis of the present invention, which causes TBI-induced brain damage (See, e.g., FIG. 1). For these experiments two-photon confocal live imaging of mouse cortical neurons through a cortical window was used. Live video records of the activity of cortical neurons in mice before and after TBI were made.

sympathetic neuron = experiment: Action potential firing in a sympathetic neuron, current-clamp
Description: Various currents are applied in “current-clamp” mode 44 ranging from 50 pA to −100 pA, and the resulting AP firing recorded.

SMILES | TBI-induced increase in hyper-activity in response to kainic acid stimulation (hippocampal slices, ex vivo) [1] | occurrence of TBI-induced myoclonic seizures [2] | occurrence of PTZ-induced seizures [3] | TBI-induced hyper-excitability in cortex imaged in vivo (cortical neurons) | action potential firing in response to stimuli (sympathetic neuron)
CCOC(=O)Nc1ccc(NCc2ccc(C(F)(F)F)cc2)c(F)c1N [RL648_81] | reduces the increased seizure susceptibility in brain slices; also recorded: completely abolished | measurably reduced the occurrence of TBI-induced myoclonic seizures | completely blocked the occurrence of PTZ-induced seizures | prevents TBI-induced hyper-excitability in cortex | 
O=C1N(c2ccccc2)c2ccccc2C1(Cc1ccncc1)Cc1ccncc1 [leopardine] |  |  |  |  | out-of-control AP firing
